pEC50: −log10 of the molar value.
Each molecule was assayed against T1, human RXFP1 (Homo sapiens, UniProt Q9HBX9) (assay: hRXFP1 HEK293 cAMP assay (HTRF)). Conditions: HEK293 cells stably expressing human RXFP1, 30 min at room temperature.
T1 construct: expressed in transfected cells
T1 sequence (Q9HBX9 1-757): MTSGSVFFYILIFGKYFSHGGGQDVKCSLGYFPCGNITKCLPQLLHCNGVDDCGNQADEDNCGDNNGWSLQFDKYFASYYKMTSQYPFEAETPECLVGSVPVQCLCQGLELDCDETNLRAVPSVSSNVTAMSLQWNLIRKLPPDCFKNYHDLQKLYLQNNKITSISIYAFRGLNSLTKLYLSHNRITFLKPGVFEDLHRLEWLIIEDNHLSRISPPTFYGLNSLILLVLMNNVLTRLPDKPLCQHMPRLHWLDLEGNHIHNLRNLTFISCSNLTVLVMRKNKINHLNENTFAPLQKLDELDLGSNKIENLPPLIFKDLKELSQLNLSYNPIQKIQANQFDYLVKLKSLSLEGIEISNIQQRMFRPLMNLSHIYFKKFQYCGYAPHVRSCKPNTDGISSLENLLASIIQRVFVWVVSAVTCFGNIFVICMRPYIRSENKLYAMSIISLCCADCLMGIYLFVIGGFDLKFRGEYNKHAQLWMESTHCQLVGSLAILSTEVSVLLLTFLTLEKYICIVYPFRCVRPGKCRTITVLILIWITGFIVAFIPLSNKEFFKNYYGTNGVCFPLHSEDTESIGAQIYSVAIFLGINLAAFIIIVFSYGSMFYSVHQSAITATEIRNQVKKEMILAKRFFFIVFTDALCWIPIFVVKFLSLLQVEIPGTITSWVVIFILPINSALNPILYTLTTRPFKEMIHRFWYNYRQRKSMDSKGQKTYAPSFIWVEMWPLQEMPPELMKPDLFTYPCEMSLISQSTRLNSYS
Assay type: cell-based
Method in brief: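 In a stable human RXFP1 HEK293 line, compounds acted for 30 min at RT in buffer with 0.5 mM IBMX. HTRF then quantified cellular cAMP.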

| Molecule | pEC50 |
| --- | --- |
| COc1ccc(CN2C(=O)CNC2=O)cc1C(=O)N[C@@H]1C2CCC(/C2=C/C2CC2)[C@@H]1C(=O)Nc1ccc(F)c(C(F)(F)F)c1 (stereo partly drawn) [Example 22, (2S,3R,7Z)-7-(cyclopropylmethyli-dene)-3-{5-[(2,5-dioxoimidazolidin-1-yl)methyl]-2-methoxybenzamido}-N-[4-fluoro-3-(trifluoromethyl)phe-nyl]bicyclo[2.2.1]hept-ane-2-carboxamide] | 6.38 |
| CNc1ccc(CCCO)cc1C(=O)N[C@H]1[C@@H](C(=O)Nc2ccc(F)c(C(F)(F)F)c2)[C@H]2CC[C@@H]1/C2=C\C(F)(F)F [Example 11, (1R,2S,3R,4R,Z)—N-(4-fluoro-3-(trifluoromethyl)phenyl)-3-(5-(3-hydroxypropyl)-2-(methylamino)benzamido)-7-(2,2,2-trifluoroethylidene) bicyclo[2.2.1]heptane-2-carboxamide] | 5.33 |
| COc1ccc(CCCNC(=O)OC(C)(C)C)cc1C(=O)N[C@@H]1C2CCC(/C2=C/C(F)(F)F)[C@@H]1C(=O)Nc1ccc(F)c(C(F)(F)F)c1 (some centres unmarked) [Example 109] | 5.68 |
| COc1ccc(CCC(C)(C)O)cc1C(=O)NC1C2CCC(/C2=C/C2CCCC2)[C@@H]1C(=O)Nc1ccc(F)c(C(F)(F)F)c1 (some centres unmarked) [Example 168, (7Z)-7-(cyclopentylmethyli-dene)-N-[4-fluoro-3-(trifluoromethyl)phe-nyl]-3-[5-(3-hydroxy-3-methylbutyl)-2-methoxybenzamido] bicyclo[2.2.1]heptane-2-carboxamide] | 8.10 |
| COc1ccc(C2CCC(C(F)(F)F)CC2)cc1C(=O)NC1C2CCC(/C2=C/C(F)(F)F)[C@@H]1C(=O)Nc1ccc(F)c(C(F)(F)F)c1 (some centres unmarked) [Example 177, (7Z)-N-[4-fluoro-3-(trifluoromethyl)phe-nyl]-3-{2-methoxy-5-[4-(trifluoromethyl)cyclo-hexyl]benzamido}-7-(2,2,2-trifluoroethylidene)bi-cyclo[2.2.1]heptane-2-carboxamide] | 6.53 |
| (1R,4R,7Z)-N-[4- fluoro-3- (trifluoromethyl) phenyl]-3-[5-(3- hydroxy-3- methylbutyl)-2- methoxybenzamido 1-7-[(oxolan-3- yl)methylidene] bicyclo[2.2.1] heptane- 2-carboxamide [Example 267] | 6.61 |
| COc1ccc(C#C[C@H](C)O)cc1C(=O)N[C@@H]1C2CCC(/C2=C/C(F)(F)F)[C@@H]1C(=O)Nc1ccc(F)c(C(F)(F)F)c1 (stereo partly drawn) [Example 71, (2S,3R,7Z)-N-[4-fluoro-3-(trifluoromethyl)phe-nyl]-3-{5-[(3S)-3-hydroxybut-1-yn-1-yl]-2-methoxybenzamido}-7-(2,2,2-trifluoroethylidene)bi-cyclo[2.2.1]heptane-2-carboxamide] | 6.93 |
| COc1ccc(COC2(C(=O)NCCO)CC2)cc1C(=O)N[C@@H]1C2CCC(/C2=C/C2CC2)[C@@H]1C(=O)Nc1ccc(F)c(C(F)(F)F)c1 (some centres unmarked) [Example 17] | 6.92 |
| C#Cc1ccc(OC)c(C(=O)N[C@@H]2C3CCC(/C3=C/C(F)(F)F)[C@@H]2C(=O)Nc2ccc(F)c(C(F)(F)F)c2)c1 (stereo partly drawn) [Example 75, (2S,3R,7Z)-3-(5-ethynyl-2-methoxybenzamido)-N-[4-fluoro-3-(trifluoromethyl)phe-nyl]-7-(2,2,2-trifluoroethylidene)bi-cyclo[2.2.1]heptane-2-carboxamide] | 7.04 |
| COc1ccc(CCCCCCOC(=O)NC2CCC2)cc1C(=O)N[C@@H]1C2CCC(/C2=C/C(F)(F)F)[C@@H]1C(=O)Nc1ccc(F)c(C(F)(F)F)c1 (stereo partly drawn) [Example 101, 6-(3-{[(2R,3S,7Z)-3-{[4-fluoro-3-(trifluoromethyl)phe-nyl]carbamoyl}-7-(2,2,2-trifluoroethylidene)bi-cyclo[2.2.1]heptan-2-yl]carbamoyl}-4-methoxyphenyl)hex-yl N-cyclobutylcarbamate] | 6.71 |
| CCOC(=O)C1CCCC(c2ccc(OC)c(C(=O)N[C@@H]3C4CCC(/C4=C/C(F)(F)F)[C@@H]3C(=O)Nc3ccc(F)c(C(F)(F)F)c3)c2)C1 (some centres unmarked) [Example 142] | 6.78 |

Further lines, results first:

| pEC50 | Molecule |
| --- | --- |
| 6.57 | COc1ccc(CCc2ccc(F)cc2)cc1C(=O)NC1C2CCC(/C2=C/C(F)(F)F)[C@@H]1C(=O)Nc1ccc(F)c(C(F)(F)F)c1 (some centres unmarked) [Example 179, (7Z)-N-[4-fluoro-3-(trifluoromethyl)phe-nyl]-3-{5-[2-(4-fluorophenyl)ethyl]-2-methoxybenzamido}-7-(2,2,2-trifluoroethylidene)bi-cyclo[2.2.1]heptane-2-carboxamide] |
| 7.11 | COc1ccc(C(=O)OC(C)(C)C)cc1C(=O)N[C@H]1[C@@H](C(=O)Nc2ccc(F)c(C(F)(F)F)c2)[C@H]2CC[C@@H]1/C2=C\C1CC1 [Example 227] |
| 7.55 | COc1ccc(C2CC2C(=O)N2CCC(O)CC2)cc1C(=O)N[C@H]1[C@@H](C(=O)Nc2ccc(F)c(C(F)(F)F)c2)[C@H]2CC[C@@H]1/C2=C\C1CC1 (single isomer, unassigned) [Example 321] |
| 6.55 | COc1ccc(/C(=C/CO)C(F)(F)F)cc1C(=O)N[C@H]1[C@@H](C(=O)Nc2ccc(F)c(C(F)(F)F)c2)[C@H]2CC[C@@H]1/C2=C\C1CC1 [Example 282, (1R,2S,3R,4R,Z)-7-(cyclopropylmethylene)-N-(4-fluoro-3-(trifluoromethyl)phenyl)-3-(2-methoxy-5-((Z)-1,1,1-trifluoro-4-hydroxybut-2-en-2-yl)benzamido) bicyclo[2.2.1]heptane-2-carboxamide] |
| 6.22 | CCN1CCN(S(=O)(=O)c2ccc(OC)c(C(=O)N[C@H]3[C@@H](C(=O)Nc4ccc(F)c(C(F)(F)F)c4)[C@H]4CC[C@@H]3/C4=C\C(F)(F)F)c2)CC1 [Example 209] |
| 7.64 | COc1ccc(CCCCCC#N)cc1C(=O)NC1C2CCC(/C2=C/C2CCC2)[C@@H]1C(=O)Nc1ccc(F)c(C(F)(F)F)c1 (some centres unmarked) [Example 190, (7Z)-3-[5-(5-cyanopentyl)-2-methoxybenzamido]-7-(cyclobutylmethyli-dene)-N-[4-fluoro-3-(trifluoromethyl)phe-nyl]bicyclo[2.2.1]hept-ane-2-carboxamide] |
| 7.67 | COc1ccc(C2CC2C(=O)N2CCC(O)CC2)cc1C(=O)N[C@H]1[C@@H](C(=O)Nc2ccc(F)c(C(F)(F)F)c2)[C@H]2CC[C@@H]1/C2=C\C(F)(F)F (single isomer, unassigned) [Example 323] |
| 7.04 | COc1ccc(/C=C/C(=O)N2CC3CCC(C2)O3)cc1C(=O)N[C@H]1[C@@H](C(=O)Nc2ccc(F)c(C(F)(F)F)c2)[C@H]2CC[C@@H]1/C2=C\C(F)(F)F [Example 311, (1R,2S,3R,4R,7Z)-N-[4-fluoro-3-(trifluoromethyl)phenyl]-3-{2-methoxy-5-[(1E)-3-{8-oxa-3-azabicyclo[3.2.1]octan-3-yl}-3-oxoprop-1-en-1-yl]benzamido}-7-(2,2,2-trifluoroethylidene) bicyclo[2.2.1]heptane-2-carboxamide] |
| 5.76 | COc1ccc(S(=O)(=O)N2CCN(C(=O)OC(C)(C)C)[C@@H](CO)C2)cc1C(=O)N[C@H]1[C@@H](C(=O)Nc2ccc(F)c(C(F)(F)F)c2)[C@H]2CC[C@@H]1/C2=C\C(F)(F)F [Example 226, tert-butyl (2R)-4-(3-{[(1R,2R,3S,4R,7Z)-3-{[4-fluoro-3-(trifluoromethyl)phenyl]carbamoyl}-7-(2,2,2-trifluoroethylidene)bicyclo[2.2.1]heptan-2-yl]carbamoyl}-4-methoxy-benzenesulfonyl)-2-(hydroxymethyl) piperazine-1-carboxylate] |
| 6.21 | COc1ccc(S(=O)(=O)N2CC3COCC3C2)cc1C(=O)NC1C2CCC(/C2=C/C(F)(F)F)[C@@H]1C(=O)Nc1ccc(F)c(C(F)(F)F)c1 (stereo partly drawn) [Example 205, (2S,3R,7Z)-N-[4-fluoro-3-(trifluoromethyl)phe-nyl]-3-(5-{hexahydro-1H-furo[3,4-c]pyrrole-5-sulfonyl}-2-methoxybenzamido)-7-(2,2,2-trifluoroethylidene)bi-cyclo[2.2.1]heptane-2-carboxamide] |
| 6.13 | CCOC(=O)/C(C)=C/c1ccc(OC)c(C(=O)N[C@H]2[C@@H](C(=O)Nc3ccc(F)c(C(F)(F)F)c3)[C@H]3CC[C@@H]2/C3=C\C(F)(F)F)c1 [Example 305, ethyl (2E)-3-(3-{[(1R,2R,3S,4R,7Z)-3-{[4-fluoro-3-(trifluoromethyl)phenyl]carbamoyl}-7-(2,2,2-trifluoroethylidene)bicyclo[2.2.1]heptan-2-yl]carbamoyl}-4-methoxyphenyl)-2-methylprop-2-enoate] |
| 7.48 | COc1ccc(/C=C/C(=O)N2CC(O)C2)cc1C(=O)N[C@H]1[C@@H](C(=O)Nc2ccc(F)c(C(F)(F)F)c2)[C@H]2CC[C@@H]1/C2=C\C1CC1 [Example 313, (1R,2S,3R,4R,7Z)-7-(cyclopropyl-methylidene)-N-[4-fluoro-3-(trifluoromethyl)phenyl]-3-{5-[(1E)-3-(3-hydroxyazetidin-1-yl)-3-oxoprop-1-en-1-yl]-2-methoxybenzamido} bicyclo[2.2.1]heptane-2-carboxamide] |
